PubChem BioAssay (NCI)
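Assay format: 96-well plates, 48-hour exposure. GI50 = concentration required for 50% inhibition of growth. TGI marks complete inhibition of growth.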

Assays:
Assay in all cases: inhibition of tumour cell growth, NCI panel, 48 h
DU-145 prostate = system: DU-145 prostate
EKVX NSCLC = system: EKVX NSCLC
HCT-15 colon = system: HCT-15 colon
NCI-H522 lung = system: NCI-H522 lung
OVCAR-4 ovarian = system: OVCAR-4 ovarian
OVCAR-8 ovarian = system: OVCAR-8 ovarian
SF-295 CNS = system: SF-295 CNS
SK-MEL-2 melanoma = system: SK-MEL-2 melanoma
SK-MEL-28 melanoma = system: SK-MEL-28 melanoma
SN12C renal = system: SN12C renal

Row | Compound | GI50 (DU-145 prostate) | TGI (DU-145 prostate) | GI50 (EKVX NSCLC) | TGI (EKVX NSCLC) | GI50 (HCT-15 colon) | TGI (HCT-15 colon) | GI50 (NCI-H522 lung) | TGI (NCI-H522 lung) | GI50 (OVCAR-4 ovarian) | TGI (OVCAR-4 ovarian) | GI50 (OVCAR-8 ovarian) | TGI (OVCAR-8 ovarian) | GI50 (SF-295 CNS) | TGI (SF-295 CNS) | GI50 (SK-MEL-2 melanoma) | TGI (SK-MEL-2 melanoma) | GI50 (SK-MEL-28 melanoma) | TGI (SK-MEL-28 melanoma) | GI50 (SN12C renal) | TGI (SN12C renal)
1 | Nc1cc(C(F)F)c(-c2nc(N3[C@@H]4CC[C@H]3COC4)nc(N3[C@@H]4CC[C@H]3COC4)n2)cn1 | 426 nM | > 100 µM | 277 nM | 6.61 µM | 345 nM | > 100 µM | 295 nM | > 100 µM | 191 nM | 2.03 µM | 465 nM | > 100 µM | 190 nM | 1.78 µM | 388 nM | 4.96 µM | 0.203 µM | 2.92 µM | 342 nM | > 100 µM
2 | Cc1cc(NC(=O)CCc2ccc(N3C(N)=NC(N)=NC3(C)C)cc2)ccc1S(=O)(=O)F | 2630 nM | > 100 µM | 884 nM | > 100 µM | 4510 nM | > 100 µM | 3660 nM | > 100 µM | 12300 nM | > 100 µM | 600 nM | > 100 µM | 2610 nM | > 100 µM | > 55900 nM | > 100 µM | > 32.6 µM | > 100 µM | 447 nM | > 100 µM
3 | CC(=O)N1c2ccccc2C23CCN4CC5=CCOC(O)C(C5CC42)C13 (stereo not drawn) |  | > 100 µM |  | > 100 µM |  | > 100 µM |  | > 100 µM |  | > 100 µM |  | > 100 µM |  | > 100 µM |  | > 100 µM |  | > 100 µM |  | > 100 µM
4 | COC1OC(C)C(OC(=O)C(C)(C)C)C(C)(O)C1O (stereo not drawn) |  |  |  |  |  | > 100 µM |  | > 100 µM |  | > 100 µM |  | > 100 µM |  | > 100 µM |  |  |  | > 100 µM |  | > 100 µM
5 | CC(=O)Nc1ccc(/C=c2\sc3nnc(/C=C/c4ccccc4)n3c2=O)cc1 |  |  |  | > 50 µM |  |  |  | > 50 µM |  | > 50 µM |  | > 50 µM |  | > 50 µM |  | > 50 µM |  | > 50 µM |  | > 50 µM
6 | CSc1s[s+]c(SC)c1[O-] |  |  |  | > 100 µM |  | > 100 µM |  | 32.2 µM |  | > 100 µM |  | 43.7 µM |  | > 100 µM |  | > 100 µM |  | 34.2 µM |  | 52.5 µM
7 | COc1ccc(OC)c(-c2nc3sccn3c2/C=C2/C(=O)Nc3ccccc32)c1 | 2100 nM | 26.5 µM | 2510 nM | 27.7 µM | 434 nM | 14.8 µM | 294 nM | 17.3 µM | 3010 nM | > 38.7 µM | 945 nM | > 46.5 µM | 248 nM | 0.635 µM | 713 nM | 29.4 µM | 1.96 µM | 25.2 µM | 4650 nM | 33.8 µM
8 | COC(=O)c1c2c(c(C)[n+]([O-])c1C)C(=O)C(NCc1ccc(F)c(Cl)c1)=CC2=O | 2440 nM | 7.89 µM | 1930 nM | 5.18 µM | 1390 nM | 3.58 µM | 1820 nM | 4.7 µM | 652 nM | 2.07 µM | 2380 nM | 13.9 µM | 1620 nM | 4.26 µM | 2020 nM | 5.06 µM | 3.03 µM | 13.2 µM | 1520 nM | 3.66 µM
9 | O=C1C=C(Br)C(=O)C(Br)=C1 |  |  |  | > 100 µM |  | > 100 µM |  | > 100 µM |  | > 100 µM |  | > 100 µM |  | > 100 µM |  | > 100 µM |  | > 100 µM |  | > 100 µM
10 | C=C(CO)CC(O)c1ccccc1 (stereo not drawn) |  |  |  | > 100 µM |  | > 100 µM |  | > 100 µM |  | > 100 µM |  | > 100 µM |  | > 100 µM |  | > 100 µM |  | > 100 µM |  | > 100 µM
11 | Cc1ccc(C(=O)/C=C/c2ccccc2Cl)cc1 |  |  |  | 33.6 µM |  | 29.1 µM |  | 26.9 µM |  | 34.6 µM |  | 29.6 µM |  | 39.8 µM |  |  |  | 29.2 µM |  | 39.3 µM
12 | COC(=O)/C(=C/N1CCN(C(=O)c2ccco2)C1=S)C(C)=O |  |  | 2640 nM | 9.89 µM | 2220 nM | 5.77 µM |  |  | 17400 nM | 42.9 µM | 27800 nM | 88.5 µM | 18600 nM | 83.8 µM | 15200 nM | 51 µM | 9.08 µM | 52.6 µM | 5930 nM | 22.4 µM
13 | C[C@]12CC[C@@H]3c4ccc(O)cc4CC[C@H]3[C@@H]1CC[C@@H]2NS(=O)(=O)c1cccc(Br)c1 | 5220 nM | 17 µM |  |  | 2770 nM | 11.1 µM | 2360 nM | 11.4 µM | 2450 nM | 9.98 µM | 3980 nM | 16.7 µM | 3190 nM | 11.7 µM | 3680 nM | 12 µM | 4.21 µM | 15.9 µM | 2250 nM | 5.73 µM
14 | CN/N=C(\C)CC(=O)Nc1cccc(Cl)c1C |  |  |  | > 100 µM |  | > 100 µM |  | > 100 µM |  | > 100 µM |  | > 100 µM |  | > 100 µM |  | > 100 µM |  | > 100 µM |  | > 100 µM
15 | O=C(O)/C(O)=C1/C=C(c2ccccc2)c2ccccc21 |  |  |  |  |  | 50.6 µM |  | 30.9 µM |  | 80.7 µM |  | 59.4 µM |  | 32.9 µM |  | 33.1 µM |  |  |  | 61.9 µM
16 | CC(C)OCN1COCN=C1NC#N |  |  |  | > 100 µM |  | 34.2 µM |  | > 100 µM |  | > 100 µM |  | > 100 µM |  | > 100 µM |  | > 100 µM |  | > 100 µM |  | > 100 µM
17 | COc1ccc2cc(C(=O)/C=C/c3ccc(OC)c(OC)c3)ccc2c1 | 15500 nM | 80.1 µM | 22000 nM | 68.4 µM | 3110 nM | > 100 µM |  |  |  |  | 14000 nM | 49.7 µM | 35600 nM | > 100 µM |  |  | 33.7 µM | 98.9 µM | 13500 nM | 32.6 µM
